Test system: ALS patients
Assay: Serum metabolites (HPLC) in ALS patients before/after five weekly LMW-DS 1.0 mg/kg s.c. (Example 12)
Assay type: in vivo, human
Conditions: post- vs pre-treatment
Procedure: After an initial screening visit, patients had five weekly dosing of a single LMW-DS (ILB®, Tikomed AB, Viken, Sweden, WO 2016/076780) injection of 1.0 mg/kg body weight in saline into the subcutaneous fat of the lower abdomen.
Peripheral venous blood samples were been collected from the patients after at least 15 minutes of complete rest, using the standard tourniquet procedure, from the antecubital vein into a single VACUETTE® polypropylene tube containing serum separator and clot activator (Greiner-Bio One GmbH, Kremsmunster, Austria). After 30 minutes at room temperature, blood withdrawals were centrifuged at 1,890 × g for 10 min and the resulting serum samples were stored at -20° C. until analysis.
After defrost, an aliquot of 500 µl of each serum sample was supplemented with 1 ml of HPLC-grade acetonitrile, vortexed for 60 seconds, centrifuged at the maximum speed in a top-bench centrifuge to precipitate proteins. Supernatants were washed with large volumes of HPLC-grade chloroform to remove organic solvent, centrifuged and the upper aqueous phases were transferred in different tubes, clearly labeled to identify the sample and stored at -80° C. until analyzed to determine different water-soluble compounds.
A second aliquot of about 300 µl of each serum sample was light-protected and then processed to extract fat-soluble antioxidants using a method described in detail elsewhere (Lazzarino et al., Single-step preparation of selected biological fluids for the high performance liquid chromatographic analysis of fat-soluble vitamins and antioxidants. J Chromatogr A. 2017; 1527: 43-52.). Briefly, samples were supplemented with 1 ml of HPLC-grade acetonitrile, vigorously vortexed for 60 s and incubated at 37° C. for 1 h in a water bath under agitation, to allow the full extraction of lipid soluble compounds. Samples were then centrifuged at 20,690 × g for 15 min at 4 C to precipitate proteins and the clear supernatants were saved at -80° C. until the HPLC analysis of fat-soluble vitamins and antioxidants.
In deproteinized serum samples, the following water-soluble compounds were separated and quantified by HPLC, according to methods described elsewhere (Tavazzi et al., Simultaneous high performance liquid chromatographic separation of purines, pyrimidines, N-acetylated amino acids, and dicarboxylic acids for the chemical diagnosis of inborn errors of metabolism. Clin Biochem. 2005; 38: 997-1008; Romitelli et al., Comparison of nitrite/nitrate concentration in human plasma and serum samples measured by the enzymatic batch Griess assay, ion-pairing HPLC and ion-trap GC-MS: The importance of a correct removal of proteins in the Griess assay. J Chromatogr B Analyt Technol Biomed Life Sci. 2007; 851: 257-267; Amorini et al., Metabolic profile of amniotic fluid as a biochemical tool to screen for inborn errors of metabolism and fetal anomalies. Mol Cell Biochem. 2012; 359: 205-216): hypoxhantine, xanthine, uric acid, malondialdehyde (MDA), nitrite, nitrate, N-acetylaspartate (NAA), citrulline (CITR), alanine (ALA), and ornithine (ORN).
The following fat-soluble vitamins and antioxidants in deproteinized serum samples were separated and quantified by HPLC according to a method as previously described (Lazzarino et al., Cerebrospinal fluid ATP metabolites in multiple sclerosis. Mult Scler J. 2010; 16: 549-554): α-tocopherol (vitamin E) and γ-tocopherol. In addition to the abovementioned fat-soluble antioxidants and vitamins, also the concentration of total bilirubin was determined in serum samples.
Comparison of the Pre- and Post-treatment subgroups was performed by the two-tailed Student’s t-test for paired samples. The comparison of each subgroup with the group of control healthy subjects was carried out by the two-tailed non-parametric Mann-Whitney U-test for unpaired observations. Differences with p < 0.05 were considered statistically significant.

sodium salt of dextran sulfate [LMW-DS]
normalized: serum ALA
Significantly lower: serum NAA
decreased: serum MDA | serum nitrate | serum nitrite + nitrate | serum sum of oxypurines | serum total bilirubin | serum uric acid
ameliorated: serum CITR | serum ORN/CITR ratio | serum α-tocopherol | serum γ-tocopherol
